Key:
liverwort = assay: Liverwort control by spraying; format: in vivo; details: for contribution to phytotoxicity, in words: liverwort; for liverwort control, in words: sprayed on liverwort
Source text: The sinalbin had been hydrolyzed to undetectable levels.

potato sprouting = details: in vivo; cited from earlier work
[1] = system: weeds, vegetative cover, wheat, cotton; details: cited from earlier work

| Compound | contribution to phytotoxicity, in words (liverwort) | liverwort control, in words (liverwort) | effect on potato sprouting, in words (potato sprouting) | other results |
| --- | --- | --- | --- | --- |
| OCc1ccc(O)cc1 [4-hydroxybenzyl alcohol] | primary phytotoxic compounds | did not control the liverwort as effectively as applying the extract |  | contribution to phytotoxicity, in words (liverwort; listed as 4-OH benzyl alcohol): more phytotoxic that SCN^− |
| N#C[S-].[Na+] [sodium thiocyanate (NaSCN), sodium thiocyanate] |  |  | promote potato sprouting |  |
| N#CCc1ccc(O)cc1 [4-hydroxyphenyl acetonitrile] | primary phytotoxic compounds | did not control the liverwort as effectively as applying the extract |  | contribution to phytotoxicity, in words (liverwort; listed as nitrile): much more phytotoxic than SCN^− |
| N#C[S-].[K+] [potassium thiocyanate (KSCN), potassium thiocyanate] |  |  | promote potato sprouting |  |
| N#CS [SCN^−, ionic thiocyanate] | minor contributor |  |  | rate causing inhibition of wheat germination ([1]; effect no longer observed at 69 days post application): 342 kilograms SCN^−/ha; rate necessary for complete plant kill for 4 months ([1]; in vivo): 1,366 kg SCN^−/ha; rate removing a large percentage of the weeds ([1]; in vivo): 137 kilograms SCN^−/ha; rate at which cotton defoliation was possible ([1]; solutions sprayed directly on vegetative growth): 8.6 kilograms SCN^−/ha |
| N.N#CS [ammonium thiocyanate (NH4SCN), ammonium thiocyanate] |  |  | promote potato sprouting |  |
